# Ends that are not written are not given here.
# Tests used:
# 3T3442A cells = assay type: cell-based; details: one hour at 37EC
# Description: A PKR peptide antagonist (50 μg) having the sequence […] (SEQ ID NO: 25) comprising a cell permeability subsequence (residues 1-16 of SEQ ID NO:25), a heme agglutinin-epitope tag subsequence (residues 17-25 of SEQ ID NO:25), and a PKR peptide antagonist subsequence (residues 26-46 of SEQ ID NO:25) was radiolabeled with [^125 I]-iodine by the chloramine-T method (Hunter, W. M. and Greenwood, F. C. Nature 194:495-496, 1962) and purified by size exclusion chromatography using BioGel P2 (BioRad, Inc.) 35 million CPM of radiolabeled PKR peptide was added to pre-confluent cultures of 3T3442A cells grown in medium containing 10% FBS. After 1 hour at 37° C., the media was aspirated and the cells were washed four times in phosphate buffered saline (PBS). Cells were removed from the culture dishes by scraping and collected by centrifugation (4EC, 750×g, 5 min). The wash buffer was removed and the cell pellet was dissolved in SDS-polyacrylamide gel buffer (Laemmli, Nature (London), 227:680-685, 1970). The sample was analyzed by SDS-tricine polyacrylamide gel electrophoresis using 4-20% gradient tricine-SDS gels and the radiolabeled peptide antagonist was visualized by autoradiography of dried gels. […]
# The subcellular localization of the PKR peptide antagonist (SEQ ID NO:25) that had been internalized by 3T3442A cells was determined by confocal microscopy. […]
# [1] = target: T1, PKR (dsRNA-dependent protein kinase) (Oryctolagus cuniculus) (UniProt Q287T5); assay: competition; details: unlabeled poly(I)-poly(C) 80 ug/ml as competitor to TAR RNA
# T1 sequence: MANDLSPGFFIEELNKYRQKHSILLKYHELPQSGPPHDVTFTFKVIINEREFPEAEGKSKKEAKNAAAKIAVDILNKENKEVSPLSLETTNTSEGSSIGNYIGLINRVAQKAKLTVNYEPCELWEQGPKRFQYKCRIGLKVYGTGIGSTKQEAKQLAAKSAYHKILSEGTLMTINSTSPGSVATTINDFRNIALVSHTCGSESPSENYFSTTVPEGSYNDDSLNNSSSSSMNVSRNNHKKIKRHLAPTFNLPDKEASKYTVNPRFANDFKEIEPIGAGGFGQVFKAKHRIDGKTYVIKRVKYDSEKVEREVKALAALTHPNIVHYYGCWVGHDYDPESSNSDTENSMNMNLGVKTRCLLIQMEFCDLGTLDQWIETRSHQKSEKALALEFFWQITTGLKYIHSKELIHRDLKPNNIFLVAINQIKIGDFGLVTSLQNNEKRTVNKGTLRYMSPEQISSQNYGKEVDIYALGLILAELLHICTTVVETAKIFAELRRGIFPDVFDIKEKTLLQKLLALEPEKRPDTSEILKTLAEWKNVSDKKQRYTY
Substance,"subcellular localization of internalized peptide (confocal microscopy, anti-HA) (3T3442A cells)",binding signal (% inhibition of TAR complex) [1]
AAVALLPAVLLALLAPYPYDVPDYAKKEAKNAAAKLAVEILNKEKK [SEQ ID NO:25],"obvious, intense localization of the epitope-tagged peptide to the cell cytoplasm",–
poly(I)-poly(C),–,60

# — patent publication US6326466A, “Double-stranded RNA dependent protein kinase derived peptides to promote proliferation of cells and tissues in a controlled manner” (priority 1999, dated 2001)
